Reference: PubChem BioAssay (NCI)
Several values for one entry are separate records, joined by “and”; a condition that tells them apart may be missing. Identical values can stand only once.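 1) Cells in 96-well plates. 2) Compound, 48 h, 5 concentrations. 3) Linear interpolation between surrounding doses. 4) Unreached endpoint = highest concentration. Abbreviation: GI50, concentration required for 50% inhibition of growth. TGI: concentration producing complete growth inhibition.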

Tested on: MDA-MB-468 breast
Assay: growth of human tumour cells (NCI), 48 h

Row | SMILES | GI50 | TGI
1 | NC(=O)[C@@H](CCC(F)(F)F)N(Cc1ccc(-c2ncon2)cc1F)S(=O)(=O)c1ccc(Cl)cc1 | 7.26 µM | > 100 µM
2 | CCCOc1cc2c(cc1O)CC[C@@H]1[C@@H]2CC[C@]2(C)[C@@H](O)CC[C@@H]12 | 2.8 µM | 16.7 µM
3 | C=CCCCC(=O)CCC(=O)OCC1O[C@@H](O[C@@H]2C(O)[C@@H](OC(C)=O)C(C)O[C@H]2O[C@H](CC=C)CCCCC)C(O)[C@@H](OC(=O)/C(C)=C/C)[C@@H]1OC(=O)/C=C/c1ccccc1 (stereo partly specified) | 0.0321 µM | 1.22 µM
4 | COc1cc(C(=O)/C=C/c2cc(-c3cc(OC)c(OC)c(OC)c3)n[nH]2)cc(OC)c1OC | 1.15 µM | 2.48 µM
5 | COc1ccc2oc(=O)cc(C3c4ccc([nH]4)C(c4cc(=O)oc5ccc(OC)cc45)c4ccc([nH]4)C(c4cc(=O)oc5ccc(OC)cc45)c4ccc([nH]4)C(c4cc(=O)oc5ccc(OC)cc45)c4ccc3[nH]4)c2c1 (stereo unspecified) | 0.401 µM | 1.91 µM
6 | Cc1ccc(S(=O)(=O)Oc2ccccc2-c2ccccc2)cc1 | 0.866 µM | 4.22 µM
7 | O=C1N=C(c2c(-c3[nH]c(=O)c4ccc(Br)cc4c3O)c(O)c3ccccc3c2O)C(=O)c2cc(Br)ccc21 | 0.412 µM | 1.49 µM
8 | O=C(Nc1ccc(-n2ccc3c(NC(=O)c4ccccc4)nccc32)cc1)c1cccc(C(F)(F)F)c1 | 1.2 µM | 7.3 µM
9 | c1cc2ccc3cc2cc1CNCCN1CCNCc2ccc4ccc(cc4c2)CNCCN(CCNC3)CCNCc2ccc3ccc(cc3c2)CNCC1 | 2.01 µM | 4 µM
10 | COc1ccc2nc(NC(=O)COc3cc(/C=C\c4cc(OC)c(OC)c(OC)c4)ccc3OC)sc2c1 | 2.29 µM | 8.37 µM
11 | COc1ccc(C(=O)NCCNc2nccc(-c3c(-c4ccc(F)cc4)nc4sccn34)n2)cc1 | 4.74 µM | 41 µM
12 | N#CCCN1C/C(=C/c2ccccc2)C(=O)/C(=C/c2ccccc2)C1 | 1.68 µM | 3.78 µM
13 | O=c1c2sc3ccccc3c2nnn1-c1ccc(F)c(Cl)c1 | 12.8 µM | 99.5 µM
14 | CO/N=C/C=C\C(=O)N/C=C/C[C@H]1/C=C/[C@H](O)/C=C\C=C\c2cccc(O)c2C(=O)O1 | 0.286 µM and 0.187 µM | 29.9 µM and 17.5 µM
15 | CCCCCC/C=C\CCCCCCCCCc1cc(O)cc(OC)c1O | 0.296 µM | 0.828 µM
16 | O=C(CCl)Nc1ccc2c(Nc3cc(O)ccc3Cl)ncnc2c1 | 2.29 µM | 7.68 µM
17 | Cc1ccc2nc3ccccc3c(NCc3ccccc3)c2c1 | 1.52 µM | 5.54 µM
18 | COc1ccc2[nH]c(C(=O)N3CCN(C(=O)OCc4ccc5c(Br)cc(Br)c(O)c5n4)CC3)cc2c1 | 0.209 µM | 0.506 µM
19 | COC(=O)c1ccc([C@H]2c3[nH]c4ccccc4c3C[C@H](C(=O)OC)N2C(=O)CCl)cc1 | 0.472 µM | 1.9 µM
20 | CCCCCCCCNC(=O)c1ccc(Cn2c(CCCC)nc3c(N)nc4ccccc4c32)cc1 | 1.38 µM | 3.06 µM
21 | Nc1c(C(=O)Nc2ccccc2)sc2nc3c(cc12)C(O)CCC3 (stereo unspecified) | 0.29 µM | > 100 µM
22 | N#Cc1c(-c2ccc(Cl)cc2)cc(-c2cc(O)ccc2O)nc1N | 0.769 µM | 3.72 µM

Row | SMILES | GI50 | TGI
23 | Cn1cc(-c2ccc(-c3cn(C)c4ncccc34)[nH]2)c2cccnc21 | 1.79 µM | 5.22 µM
24 | COC(=O)N1c2ccc3c(nc(Cc4ccccc4)n3[C@H]3CCC[C@H](C(=O)O)C3)c2CC[C@@H]1C | 3.82 µM | > 100 µM
25 | O=C(O)c1cc2cc(OCc3ccccc3)ccc2[nH]1 | > 100 µM | > 100 µM
26 | CS(C)(=O)=O | > 100000 µM | > 100000 µM
27 | O=c1cc(N2CCOCC2)oc2c(-c3ccc4c(c3)OCCO4)csc12 | 0.629 µM | 3.75 µM
28 | Cc1ccncc1N1CCN(c2ccnc(Cl)c2)C1=O | > 100 µM | > 100 µM
29 | CCC(=O)Oc1cc(/C=C/C(=O)O[C@H]2C[C@H]3CN4CCc5c([nH]c6cc(OC)ccc56)[C@@H]4C[C@@H]3[C@@H](C(=O)OC)[C@@H]2OC)ccc1OC | 4.76 µM | 33.3 µM
30 | Clc1ccc(CN2COc3c(ccc4cccnc34)C2)cc1Cl | 0.543 µM | 2.16 µM
31 | O=c1c2c3c(sc2n2c(CCl)nnc2n1Cc1ccccc1)CCCC3 | 1.77 µM | 3.72 µM
32 | COc1ccc(NC(=O)c2sc3nc(C)c(C(=O)/C=C/c4ccccc4)cc3c2N)cc1 | 0.92 µM | 2.03 µM
33 | NCCOc1ncccc1/C=C1\C2C=CC=CC2C2C=CC(F)=CC12 (stereo unspecified) | 0.483 µM | 2.01 µM
34 | CCCCCCCCCCCCCCNc1nc(C(=O)OCC)ncc1-c1ccc(C(F)(F)F)cc1 | > 100 µM | > 100 µM
35 | COc1cnc2c(c1)C(=O)c1c-2n(CCCNCC2CC2)c(=O)c2cc(F)ccc12 | 0.316 µM | 0.904 µM
36 | Cn1ccnc1C(=O)/C=C/c1ccc(C(=O)Nc2ccccc2F)cc1 | 2.49 µM | 8.3 µM
37 | CC(=O)Nc1nc(C)c(-c2csc(Nc3ccccc3)n2)s1 | 1.74 µM | 9.01 µM
38 | CCCCCCC/C(=N\N=C(N)N)c1ccc(O)cc1 | 1.3 µM | 2.6 µM
39 | COc1ccc(C(=O)/C=C/c2ccc(OCc3ccc(Cl)cc3)cc2)cc1OC | 40.6 µM | 271 µM
40 | COc1ccc(C(=O)C2C(C#N)C(C#N)C3C=Cc4ccccc4N32)cc1 (stereo unspecified) | 2.31 µM | > 100 µM
41 | CC1=C2[C@H]3OC(=O)[C@@H](C)[C@@H]3CC[C@@]2(C)C=CC1=O | > 100 µM | > 100 µM
42 | O=C(N/N=C\c1cc(Cl)ccc1O)c1ccncc1 | 1.83 µM | 9.82 µM
43 | O=C(CC1(O)C(=O)N(Cc2ccccc2)c2ccc(Br)cc21)c1ccc(C(=O)NCC2CCC3(CC2)OOC2(CCCCC2)OO3)cc1 (stereo unspecified) | 2.01 µM | 6.72 µM
